This passage reports Ki results from PubChem BioAssay AID493040 (Abbott Labs, 2011).

The source made the active and inactive calls. The rule behind the calls is not given here.

The Ki is a dissociation constant, usually derived from enzyme kinetics or from competition with a known ligand.

Experiment in all cases: PubChem AID 493040
The target in assay [1] is Mitogen-activated protein kinase 14 (Homo sapiens) (UniProt Q16539). The conditions noted are these: kinase panel binding, pKi; MAPK14.
Assay [2] addresses Cyclin-dependent kinase 2 (Homo sapiens) (UniProt P24941). The conditions noted are these: kinase panel binding, pKi; CDK2.
Assay [3] addresses Rho-associated protein kinase 2 (Homo sapiens) (UniProt O75116). The conditions noted are these: kinase panel binding, pKi; ROCK2.
The target of assay [4] is Cyclin-dependent kinase 5 (Homo sapiens) (UniProt Q00535). The note with it: kinase panel binding, pKi; CDK5.
Assay [5] addresses Cell division cycle 7-related protein kinase (Homo sapiens) (UniProt O00311). The note with it: kinase panel binding, pKi; CDC7.
Assay [6] has as its target Epidermal growth factor receptor (Homo sapiens) (UniProt P00533). The conditions noted are these: kinase panel binding, pKi; EGFR.
Assay [7] concerns the target Serine/threonine-protein kinase PLK3 (Homo sapiens) (UniProt Q9H4B4). The conditions noted are these: kinase panel binding, pKi.
The target in assay [8] is Serine/threonine-protein kinase Sgk2 (Homo sapiens) (UniProt Q9HBY8). The note with it: kinase panel binding, pKi; SGK.
Serine/threonine-protein kinase Sgk2 (Homo sapiens), sequence (Q9HBY8 whole entry, looked up): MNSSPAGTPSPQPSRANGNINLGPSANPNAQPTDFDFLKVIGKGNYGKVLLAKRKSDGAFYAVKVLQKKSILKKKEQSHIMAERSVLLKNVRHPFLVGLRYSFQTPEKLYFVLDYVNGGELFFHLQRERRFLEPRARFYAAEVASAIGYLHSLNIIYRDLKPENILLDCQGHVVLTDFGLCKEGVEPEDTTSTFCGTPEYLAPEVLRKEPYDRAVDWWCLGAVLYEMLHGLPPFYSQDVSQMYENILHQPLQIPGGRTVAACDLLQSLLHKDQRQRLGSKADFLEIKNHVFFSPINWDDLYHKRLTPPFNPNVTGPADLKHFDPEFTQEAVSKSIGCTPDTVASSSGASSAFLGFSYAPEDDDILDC

Mitogen-activated protein kinase 14 (Homo sapiens), sequence (Q16539 whole entry, looked up): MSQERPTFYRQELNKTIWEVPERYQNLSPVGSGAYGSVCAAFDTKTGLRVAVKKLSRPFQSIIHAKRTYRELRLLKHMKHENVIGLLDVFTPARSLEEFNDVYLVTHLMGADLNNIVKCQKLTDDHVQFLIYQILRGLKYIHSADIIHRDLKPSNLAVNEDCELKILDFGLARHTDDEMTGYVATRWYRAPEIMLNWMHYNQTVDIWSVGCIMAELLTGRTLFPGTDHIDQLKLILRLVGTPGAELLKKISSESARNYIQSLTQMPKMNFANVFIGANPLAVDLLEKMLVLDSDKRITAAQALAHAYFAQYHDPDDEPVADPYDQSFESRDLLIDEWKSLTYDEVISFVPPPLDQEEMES
Rho-associated protein kinase 2 (Homo sapiens), sequence (O75116 whole entry, looked up): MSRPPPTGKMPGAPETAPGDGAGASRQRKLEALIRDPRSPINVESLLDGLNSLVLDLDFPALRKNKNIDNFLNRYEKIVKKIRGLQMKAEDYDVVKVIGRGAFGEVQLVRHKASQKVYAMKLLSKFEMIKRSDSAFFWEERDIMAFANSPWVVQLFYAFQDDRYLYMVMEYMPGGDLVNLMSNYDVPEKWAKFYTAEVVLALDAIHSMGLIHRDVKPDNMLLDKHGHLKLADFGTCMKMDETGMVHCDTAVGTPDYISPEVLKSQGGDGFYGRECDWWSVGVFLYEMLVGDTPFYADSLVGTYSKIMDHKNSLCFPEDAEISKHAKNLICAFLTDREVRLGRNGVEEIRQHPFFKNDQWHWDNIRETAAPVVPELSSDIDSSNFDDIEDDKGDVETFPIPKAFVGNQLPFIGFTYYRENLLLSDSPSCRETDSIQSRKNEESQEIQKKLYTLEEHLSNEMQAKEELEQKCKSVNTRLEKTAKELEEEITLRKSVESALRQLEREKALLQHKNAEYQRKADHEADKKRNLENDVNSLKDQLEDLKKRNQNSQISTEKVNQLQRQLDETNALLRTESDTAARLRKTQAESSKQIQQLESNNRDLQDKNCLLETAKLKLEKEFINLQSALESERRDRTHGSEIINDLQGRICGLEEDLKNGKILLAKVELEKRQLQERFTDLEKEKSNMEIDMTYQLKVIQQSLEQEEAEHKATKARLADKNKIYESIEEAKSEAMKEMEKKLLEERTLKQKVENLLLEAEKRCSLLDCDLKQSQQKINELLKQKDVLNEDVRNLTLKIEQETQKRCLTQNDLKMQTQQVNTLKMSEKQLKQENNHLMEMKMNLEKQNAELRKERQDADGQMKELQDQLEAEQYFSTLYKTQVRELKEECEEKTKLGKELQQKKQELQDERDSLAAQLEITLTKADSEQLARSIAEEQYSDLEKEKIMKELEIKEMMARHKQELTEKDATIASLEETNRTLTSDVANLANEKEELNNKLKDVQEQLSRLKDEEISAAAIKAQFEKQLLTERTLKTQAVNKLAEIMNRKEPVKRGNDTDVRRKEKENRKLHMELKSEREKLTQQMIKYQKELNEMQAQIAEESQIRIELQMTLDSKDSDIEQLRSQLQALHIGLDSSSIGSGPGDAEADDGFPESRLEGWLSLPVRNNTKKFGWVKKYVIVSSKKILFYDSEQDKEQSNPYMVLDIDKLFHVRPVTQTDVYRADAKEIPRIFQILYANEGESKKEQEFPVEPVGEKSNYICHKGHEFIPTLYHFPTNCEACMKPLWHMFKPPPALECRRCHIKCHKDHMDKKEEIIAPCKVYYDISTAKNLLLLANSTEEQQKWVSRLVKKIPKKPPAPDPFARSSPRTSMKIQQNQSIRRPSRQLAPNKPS
Epidermal growth factor receptor (Homo sapiens), sequence (P00533 whole entry, looked up): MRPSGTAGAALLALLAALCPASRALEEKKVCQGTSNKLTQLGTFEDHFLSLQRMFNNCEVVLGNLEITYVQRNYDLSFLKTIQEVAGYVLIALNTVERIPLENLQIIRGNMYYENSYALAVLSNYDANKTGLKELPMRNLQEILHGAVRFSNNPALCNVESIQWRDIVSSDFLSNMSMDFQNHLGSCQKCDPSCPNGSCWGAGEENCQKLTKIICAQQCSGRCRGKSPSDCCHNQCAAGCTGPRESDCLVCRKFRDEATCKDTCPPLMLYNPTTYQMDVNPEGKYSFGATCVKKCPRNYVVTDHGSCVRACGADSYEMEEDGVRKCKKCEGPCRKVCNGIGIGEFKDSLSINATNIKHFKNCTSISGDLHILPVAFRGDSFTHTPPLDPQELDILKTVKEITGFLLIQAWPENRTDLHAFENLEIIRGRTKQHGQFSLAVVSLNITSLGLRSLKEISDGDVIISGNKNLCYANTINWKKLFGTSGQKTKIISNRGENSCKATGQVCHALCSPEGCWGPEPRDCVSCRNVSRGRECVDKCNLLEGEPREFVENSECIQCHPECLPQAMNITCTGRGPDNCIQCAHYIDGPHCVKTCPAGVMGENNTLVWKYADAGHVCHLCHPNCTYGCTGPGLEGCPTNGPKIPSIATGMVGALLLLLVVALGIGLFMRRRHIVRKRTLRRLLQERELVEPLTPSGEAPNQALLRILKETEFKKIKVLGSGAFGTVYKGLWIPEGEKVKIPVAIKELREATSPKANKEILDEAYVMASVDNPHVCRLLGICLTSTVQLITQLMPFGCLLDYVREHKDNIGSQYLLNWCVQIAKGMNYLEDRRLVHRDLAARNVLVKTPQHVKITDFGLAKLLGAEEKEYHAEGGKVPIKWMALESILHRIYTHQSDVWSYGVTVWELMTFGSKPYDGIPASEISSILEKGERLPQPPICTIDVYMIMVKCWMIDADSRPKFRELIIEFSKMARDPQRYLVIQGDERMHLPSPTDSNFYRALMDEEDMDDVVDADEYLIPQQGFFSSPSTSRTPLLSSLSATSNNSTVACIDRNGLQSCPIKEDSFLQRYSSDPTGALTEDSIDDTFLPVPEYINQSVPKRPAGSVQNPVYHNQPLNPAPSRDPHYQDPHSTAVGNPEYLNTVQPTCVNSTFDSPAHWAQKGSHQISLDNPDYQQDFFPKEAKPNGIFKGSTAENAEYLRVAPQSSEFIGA
Cell division cycle 7-related protein kinase (Homo sapiens), sequence (O00311 whole entry, looked up): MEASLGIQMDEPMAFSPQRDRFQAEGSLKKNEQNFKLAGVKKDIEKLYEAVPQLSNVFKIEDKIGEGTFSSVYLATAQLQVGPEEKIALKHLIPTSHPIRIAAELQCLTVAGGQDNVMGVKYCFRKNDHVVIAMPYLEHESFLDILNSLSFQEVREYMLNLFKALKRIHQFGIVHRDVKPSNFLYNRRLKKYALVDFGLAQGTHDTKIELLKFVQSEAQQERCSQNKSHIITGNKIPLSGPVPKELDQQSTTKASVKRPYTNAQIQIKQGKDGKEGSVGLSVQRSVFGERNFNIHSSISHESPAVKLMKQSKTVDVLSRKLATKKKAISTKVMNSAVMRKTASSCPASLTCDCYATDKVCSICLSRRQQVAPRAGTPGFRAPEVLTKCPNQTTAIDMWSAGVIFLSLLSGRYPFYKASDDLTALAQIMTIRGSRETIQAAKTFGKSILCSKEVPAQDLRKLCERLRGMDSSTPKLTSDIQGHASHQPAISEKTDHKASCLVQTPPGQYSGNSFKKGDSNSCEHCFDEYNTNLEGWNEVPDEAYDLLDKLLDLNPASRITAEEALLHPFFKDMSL
Serine/threonine-protein kinase PLK3 (Homo sapiens), sequence (Q9H4B4 whole entry, looked up): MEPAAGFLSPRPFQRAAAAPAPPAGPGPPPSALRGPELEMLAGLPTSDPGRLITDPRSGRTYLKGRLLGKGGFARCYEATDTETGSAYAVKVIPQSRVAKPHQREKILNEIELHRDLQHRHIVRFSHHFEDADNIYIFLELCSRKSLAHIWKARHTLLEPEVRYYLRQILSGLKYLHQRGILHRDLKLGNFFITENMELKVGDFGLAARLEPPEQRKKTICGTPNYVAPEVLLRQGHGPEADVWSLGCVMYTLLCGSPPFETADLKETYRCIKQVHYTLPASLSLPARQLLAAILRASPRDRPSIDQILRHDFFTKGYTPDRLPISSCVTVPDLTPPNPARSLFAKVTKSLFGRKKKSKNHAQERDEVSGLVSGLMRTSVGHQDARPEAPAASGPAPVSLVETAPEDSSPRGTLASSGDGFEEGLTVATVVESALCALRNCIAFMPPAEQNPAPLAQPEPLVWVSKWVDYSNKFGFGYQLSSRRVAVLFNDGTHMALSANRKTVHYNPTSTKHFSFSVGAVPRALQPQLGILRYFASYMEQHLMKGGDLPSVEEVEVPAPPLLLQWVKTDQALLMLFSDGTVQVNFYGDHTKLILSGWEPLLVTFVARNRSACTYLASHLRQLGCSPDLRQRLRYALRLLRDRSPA
Cyclin-dependent kinase 5 (Homo sapiens), sequence (Q00535 whole entry, looked up): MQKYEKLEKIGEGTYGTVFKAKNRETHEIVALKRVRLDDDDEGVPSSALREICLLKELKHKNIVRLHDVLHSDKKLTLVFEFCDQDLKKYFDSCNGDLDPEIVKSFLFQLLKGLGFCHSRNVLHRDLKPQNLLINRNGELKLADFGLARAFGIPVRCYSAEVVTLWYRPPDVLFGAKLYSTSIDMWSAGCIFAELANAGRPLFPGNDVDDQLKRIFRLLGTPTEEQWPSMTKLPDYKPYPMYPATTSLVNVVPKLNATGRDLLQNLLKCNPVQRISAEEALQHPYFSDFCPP

Regarding `CCN(CCN(C)C)C(=O)c1cccc(-n2nc(C(C)(C)C)cc2NC(=O)Nc2cccc3ccccc23)c1`, the Ki in assay [1] was 794 nM.

Consider `Cc1cc(=O)[nH]c2n[nH]c(-c3cccc(C(F)(F)F)c3)c12`, for which the Ki in assay [1] is 398 nM.

For the compound `O=C(O)c1ccccc1Nc1ncnc(Nc2ccc3cn[nH]c3c2)n1`, the Ki in assay [2] is 316 nM; in assay [3], > 5010 nM (inactive); in assay [4], 251 nM.

Regarding `NC(=O)c1ccc2nc(-c3ccc([N+](=O)[O-])o3)cn2c1`, the Ki in assay [1] is 3160 nM.

`CN(C)c1ccc(-c2c(-c3ccc4[nH]nc(N)c4c3)nnn2Cc2ccccc2)cc1`: the Ki is 0.398 nM in assay [5], 126 nM in assay [2] and 20 nM in assay [3].

As for `COc1cc2ncn(-c3cc(OCc4ccccc4C(F)(F)F)c(C(N)=O)s3)c2cc1OC`, the Ki in assay [3] was > 7940 nM (inactive); in assay [6] it was 251 nM; in assay [7], 7.94 nM; in assay [8] it was > 10000 nM (inactive).

Turning to `CC(C)(C)c1cc(NC(=O)C(=O)c2cccc3ccccc23)n(-c2ccc(OCCC(N)=O)cc2)n1`, in assay [1], the Ki was 631 nM.

For `CC(C)(C)c1cc(NC(=O)c2cc3ccccc3s2)n(-c2ccc(OCC(=O)O)cc2)n1`, the Ki in assay [1] is 2510 nM.

As for `Cc1cc(=O)[nH]nc1-c1ccc(NC(=O)Nc2cc(C(F)(F)F)ccc2F)c(Cl)c1`, the Ki in assay [1] was 100 nM.

For `c1ccc(-c2ncc3ccccn23)cc1`, in assay [1], the Ki is 50100 nM.

As to `CC(=O)n1ncc2cc(N)ccc21`, the Ki in assay [1] was 7940 nM.

Take `CC(C)CC(NC(=O)c1cccc(-n2nc(C(C)(C)C)cc2NC(=O)Nc2cccc3ccccc23)c1)C(N)=O` (centres undefined): in assay [1], the Ki was 794 nM.
